Assays:
[1] = tested on: ryegrass biotype 1261.1 (without trifluralin resistance); assay: Pre-emergence (simulated IBS) pot test, % survival of ryegrass biotype 1261.1; assay type: in vivo; details: 5 weeks after herbicide application
Description: (§1) Five ryegrass biotypes with varying degrees of resistance to trifluralin (1251, 1216.1, 1252.6, 1252.2 and 1145.4) and two non-resistant biotypes (SLR4 and 1261.1) were tested. Dithiopyr was applied using a simulated incorporated by sowing (IBS) system for ryegrass and wheat.
(§2) Ryegrass: A set volume of seeds (50 seeds approx) were placed onto the surface of sandy potting soil in 0.55 L polyethylene pots. Dithiopyr was sprayed directly onto the ryegrass seed soil surface at rates of 250, 500 and 1000 grams active ingredient per hectare (g ai/ha). The seed and soil were then covered with a soil mixture to a depth of 5 mm (the soil mixture included 385 L peatmoss, 615 L coarse sand, 1024 g Ag. lime, 564 g hydrated lime, and 3.7 Kg Osmocote® Exact™ (Everris International B.V.; Geldermalsen, The Netherlands) with a pH of 6.3).
(§3) Herbicide application was performed using a laboratory boom sprayer equipped with T-jet fan nozzles at a speed of 1 ms^−1. Output from the sprayer was calibrated at 110 L ha^−1 at a pressure of 250 kPa. Using this testing procedure, volatilization losses were minimized by the immediate and even incorporation of each herbicide. The experiment was established as a randomized block design with three replications and was conducted outdoors during mid winter (July-August).
(§4) Herbicide effects on wheat and ryegrass seedlings were measured 5 weeks after spraying. Seedlings were considered emerged if they had reached the 2-leaf stage at this time. Survival % was recorded by comparing the surviving number of 2-3 leaved seedlings in the sprayed treatments to the […] (Tables 1 and 2).

[2] = tested on: ryegrass biotype 1145.4 (with trifluralin resistance); assay: Pre-emergence (simulated IBS) pot test, % survival of ryegrass biotype 1145.4; assay type: in vivo; details: 5 weeks after herbicide application
Description: as §1, §2, §3, §4

[3] = tested on: ryegrass biotype 1216.1 (with trifluralin resistance); assay: Pre-emergence (simulated IBS) pot test, % survival of ryegrass biotype 1216.1; assay type: in vivo; details: 5 weeks after herbicide application
Description: as §1, §2, §3, §4

Correll wheat = assay: Crop safety on wheat, pre-emergence (simulated IBS) pot test, % dry weight and % survival; assay type: in vivo, wheat (var. Correll); details: 5 weeks after application
Description: as §1
Wheat: Ten wheat seeds (var. Correll) were buried 1 cm deep. The herbicides were sprayed onto the soil surface and then the herbicide covered with another 5 mm of soil. This system of seed separation ensured crop selectivity
as §3, §4
In addition, wheat biomass was recorded by harvesting the plants and measuring dry weight to indicate crop safety. The dry weights from the treated plants were compared to the weight of untreated wheat and the percentage biomass calculated (Table 2).

[4] = tested on: ryegrass biotype 1252.6 (with trifluralin resistance); assay: Pre-emergence (simulated IBS) pot test, % survival of ryegrass biotype 1252.6; assay type: in vivo; details: 5 weeks after herbicide application
Description: as §1, §2, §3, §4

[5] = tested on: ryegrass biotype 1251 (with trifluralin resistance); assay: Pre-emergence (simulated IBS) pot test, % survival of ryegrass biotype 1251; assay type: in vivo; details: 5 weeks after herbicide application
Description: as §1, §2, §3, §4

[6] = tested on: ryegrass biotype SLR4 (without trifluralin resistance); assay: Pre-emergence (simulated IBS) pot test, % survival of ryegrass biotype SLR4; assay type: in vivo; details: 5 weeks after herbicide application
Description: as §1, §2, §3, §4

[7] = tested on: ryegrass biotype 1252.2 (with trifluralin resistance); assay: Pre-emergence (simulated IBS) pot test, % survival of ryegrass biotype 1252.2; assay type: in vivo; details: 5 weeks after herbicide application
Description: as §1, §2, §3, §4

Structure (SMILES): CSC(=O)c1c(C(F)F)nc(C(F)(F)F)c(C(=O)SC)c1CC(C)C [Dithiopyr, S,S′-dimethyl 2-(difluoromethyl)-4-(2-methylpropyl)-6-(trifluoromethyl)-3,5-pyridinedicarbothioate]
- % survival of ryegrass, Mean ([1]; 250 g ai/ha): 0%
- % survival of ryegrass, Mean ([1]; 500 g ai/ha): 0%
- % survival of ryegrass, Mean ([1]; 1000 g ai/ha): 0%
- % survival of ryegrass, Mean ([2]; 250 g ai/ha): 0%
- % survival of ryegrass, Mean ([2]; 500 g ai/ha): 0%
- % survival of ryegrass, Mean ([2]; 1000 g ai/ha): 0%
- % survival of ryegrass, Mean ([3]; 250 g ai/ha): 0%
- % survival of ryegrass, Mean ([3]; 500 g ai/ha): 0%
- % survival of ryegrass, Mean ([3]; 1000 g ai/ha): 0%
- Survival (%) Mean (Correll wheat; 250 g ai/ha): 82.2%
- Survival (%) Mean (Correll wheat; 500 g ai/ha): 60.0%
- Survival (%) Mean (Correll wheat; 1000 g ai/ha): 28.9%
- % survival of ryegrass, Mean ([4]; 250 g ai/ha): 0%
- % survival of ryegrass, Mean ([4]; 500 g ai/ha): 0%
- % survival of ryegrass, Mean ([4]; 1000 g ai/ha): 0%
- % survival of ryegrass, Mean ([5]; 250 g ai/ha): 0%
- % survival of ryegrass, Mean ([5]; 500 g ai/ha): 0%
- % survival of ryegrass, Mean ([5]; 1000 g ai/ha): 0%
- % survival of ryegrass, Mean ([6]; 250 g ai/ha): 0%
- % survival of ryegrass, Mean ([6]; 500 g ai/ha): 0%
- % survival of ryegrass, Mean ([6]; 1000 g ai/ha): 0%
- % survival of ryegrass, Mean ([7]; 250 g ai/ha): 0%
- % survival of ryegrass, Mean ([7]; 500 g ai/ha): 0%
- % survival of ryegrass, Mean ([7]; 1000 g ai/ha): 0%

Structure (SMILES): CCCN(CCC)c1c([N+](=O)[O-])cc(C(F)(F)F)cc1[N+](=O)[O-] [Trifluralin, 2,6-dinitro-N,N-dipropyl-4-(trifluoromethyl)benzenamine]
- % survival of ryegrass, Mean ([1]; 250 g ai/ha): 5.6%
- % survival of ryegrass, Mean ([1]; 500 g ai/ha): 0%
- % survival of ryegrass, Mean ([1]; 1000 g ai/ha): 1.1%
- % survival of ryegrass, Mean ([2]; 250 g ai/ha): 100%
- % survival of ryegrass, Mean ([2]; 500 g ai/ha): 100%
- % survival of ryegrass, Mean ([2]; 1000 g ai/ha): 14.1%
- % survival of ryegrass, Mean ([3]; 250 g ai/ha): 40.4%
- % survival of ryegrass, Mean ([3]; 500 g ai/ha): 19.1%
- % survival of ryegrass, Mean ([3]; 1000 g ai/ha): 9%
- % survival of ryegrass, Mean ([4]; 250 g ai/ha): 33.8%
- % survival of ryegrass, Mean ([4]; 500 g ai/ha): 13.1%
- % survival of ryegrass, Mean ([4]; 1000 g ai/ha): 26.3%
- % survival of ryegrass, Mean ([5]; 250 g ai/ha): 97.7%
- % survival of ryegrass, Mean ([5]; 500 g ai/ha): 68.2%
- % survival of ryegrass, Mean ([5]; 1000 g ai/ha): 27.3%
- % survival of ryegrass, Mean ([6]; 250 g ai/ha): 2.9%
- % survival of ryegrass, Mean ([6]; 500 g ai/ha): 0%
- % survival of ryegrass, Mean ([6]; 1000 g ai/ha): 0%
- % survival of ryegrass, Mean ([7]; 250 g ai/ha): 29.1%
- % survival of ryegrass, Mean ([7]; 500 g ai/ha): 13.9%
- % survival of ryegrass, Mean ([7]; 1000 g ai/ha): 3.8%

Reference: patent US8912125B2, “Control of trifluralin-resistant weeds with dithiopyr” (Dow AgroSciences, LLC., priority 2010, dated 2014)
